Experimental data as given in patent US20200078395A1, “AVERTING COMPLICATIONS OF PUMP INHIBITOR THERAPY BY EFFERVESCENT CALCIUM MAGNESIUM CITRATE” (THE BOARD OF REGENTS OF THE UNIVERSITY OF TEXAS SYSTEM, priority 2018, published 2020).

Legend:
[1] = omeprazole use versus non-omeprazole use, FDA Adverse Event Reporting System 2012 (Tamura, 2012); cited from earlier work
[2] = Serum magnesium in CKD Stage 3 and Stage 5D after EffCaMgCit or calcium acetate; format: in vivo, human
serum FGF23 = experiment: Multi-dosing crossover trial on esomeprazole: post-load serum FGF23; format: in vivo, human; details: 4 hours after morning dose, baseline to 4 weeks
Experimental: (§1) The inventors conducted a multi-dosing trial, in which the effect of EffCaMgCit was compared with placebo in a crossover trial in 22 healthy subjects taking PPI at twice the usual dose (esomeprazole 40 mg/day) for 28 days, representing the recommended treatment format for erosive esophagitis-gastritis. During the EffCaMgCit phase, subjects took EffCaMgCit containing 19 meq calcium and 10 meq magnesium twice per day for 28 days. During the Placebo Phase, the subjects took placebo for 28 days. During both phases, the subjects took esomeprazole 40 mg per day. Blood samples were obtained 4 hours after EffCaMgCit dose (in multi-dosing trials with esomeprazole), rather than in the fasting state. Tamsen: no study with PPI in CKD. Peak absorption of calcium and magnesium occurs 2-4 hours after oral load. Thus, pharmacokinetic and pharmacodynamic effects of EffCaMgCit can best be captured in post-load samples.

serum PTH = experiment: Multi-dosing crossover trial on esomeprazole: post-load serum PTH; format: in vivo, human; details: of 22 subjects, baseline 8
Experimental: as §1
(§2) A venous blood sample was obtained at 4 hours after the morning dose of EffCaMgCit or placebo, for the analysis of Ca, PTH, CTX and Mg after 2 weeks and 4 weeks of treatment. […] In the Placebo group (while on esomeprazole), a low or marginally low serum calcium (<9 mg/dL) was encountered in 23% of subjects at 2 weeks and in 18% of subjects at 4 weeks. […] Thus, not only did EffCaMgCit raise serum calcium, but it also corrected low or marginally low serum calcium. […]

[3] = Multi-dosing crossover trial on esomeprazole: fractional excretion of magnesium (FEMg); format: in vivo, human; details: from baseline over 2-4 weeks
Experimental: as §1

[4] = Multi-dosing crossover trial on esomeprazole: post-load serum magnesium; format: in vivo, human; details: for number of subjects with hypomagnesemia or marginal hypomagnesemia (<2 mg/dL): of 22 subjects, baseline 2; for subjects with hypomagnesemia or marginal hypomagnesemia (<2 mg/dL): baseline 9%
Experimental: as §1
Serum magnesium was determined at 2 weeks and 4 weeks at 4 hours after the morning dose. […] At baseline (before starting esomeprazole), 9% of subjects had hypomagnesemia or marginal hypomagnesemia (<2 mg/dL). During treatment with placebo with esomeprazole, hypomagnesemia or marginal hypomagnesemia was found in a higher percentage of subjects (14% at 2 weeks, and 23% at 4 weeks). During treatment with EffCaMgCit with esomeprazole, no subjects had hypomagnesemia or marginal hypomagnesemia. FIGS. 7 and 8.

[5] = Multi-dosing crossover trial on esomeprazole: 24-h urinary citrate and ammonium (acid load); format: in vivo, human; details: after 2-4 weeks of treatment
Experimental: as §1
24-h urinary citrate and ammonium, urinary markers of acid-base balance, were determined at baseline and after 2-4 weeks of treatment with esomeprazole (plus placebo) and after treatment with esomeprazole (plus EffCaMgCit). […] FIGS. 10 and 11.

[6] = Multi-dosing crossover trial on esomeprazole: post-load serum calcium; format: in vivo, human; details: for number of subjects with hypocalcemia or marginal hypocalcemia (serum calcium <9 mg/dL): of 22 subjects; for subjects with low or marginally low serum calcium (<9 mg/dL): baseline 18%
Experimental: as §1
A venous blood sample was obtained at 4 hours after the morning dose of EffCaMgCit or placebo, for the analysis of Ca, PTH, CTX and Mg after 2 weeks and 4 weeks of treatment. […] In the Placebo group (while on esomeprazole), a low or marginally low serum calcium (<9 mg/dL) was encountered in 23% of subjects at 2 weeks and in 18% of subjects at 4 weeks. […] Thus, not only did EffCaMgCit raise serum calcium, but it also corrected low or marginally low serum calcium. At two weeks of placebo (esomeprazole alone), a higher percentage of subjects had low or marginally low serum calcium than at baseline before esomeprazole (23% vs. 18%). Thus, a low or marginally low serum calcium developed during two weeks of esomeprazole therapy in an additional patient. This subject had normal serum calcium on EffCaMgCit (plus esomeprazole). FIGS. 1 and 2.

serum CTX = experiment: Multi-dosing crossover trial on esomeprazole: post-load serum CTX (bone resorption marker); format: in vivo, human; parameters: dose or concentration left out as unconfirmed; details: of 22 subjects
Experimental: as §1, §2

COc1ccc2[nH]c([S+]([O-])Cc3ncc(C)c(OC)c3C)nc2c1 (centres unmarked) [omeprazole]
odds ratio of hypomagnesemia [1]: 2.76

CC(=O)[O-].CC(=O)[O-].[Ca+2] [calcium acetate]
serum magnesium after treatment ([2]; CKD Stage 3, data not shown): did not change
serum Mg after treatment ([2]; CKD Stage 5D without residual renal function): did not

COc1ccc2nc([S@@+]([O-])Cc3ncc(C)c(OC)c3C)[nH]c2c1 [esomeprazole]
serum FGF23, change from Baseline (serum FGF23): trend toward a decline
serum FGF23, change from Baseline (serum FGF23; listed as PPI): tended to rise
number of subjects with high serum PTH (>65 pg/ml) (serum PTH; at 2 weeks): 15 subjects
number of subjects with high serum PTH (>65 pg/ml) (serum PTH; at 4 weeks): 10 subjects
FEMg, change during treatment [3]: trended downward
number of subjects with hypomagnesemia or marginal hypomagnesemia (<2 mg/dL) ([4]; at 2 weeks): 3 subjects
subjects with hypomagnesemia or marginal hypomagnesemia (<2 mg/dL) ([4]; at 2 weeks): 14%
number of subjects with hypomagnesemia or marginal hypomagnesemia (<2 mg/dL) ([4]; at 4 weeks): 5 subjects
subjects with hypomagnesemia or marginal hypomagnesemia (<2 mg/dL) ([4]; at 4 weeks): 23%
24-h urinary ammonium compared with baseline [5]: marginally higher
24-h urinary citrate compared with baseline [5]: significantly lower
number of subjects with hypocalcemia or marginal hypocalcemia (serum calcium <9 mg/dL) ([6]; after 4 weeks): 4 subjects
number of subjects with hypocalcemia or marginal hypocalcemia (serum calcium <9 mg/dL) ([6]; at 2 weeks): 5 subjects
subjects with low or marginally low serum calcium (<9 mg/dL) ([6]; at 2 weeks): 23%
subjects with low or marginally low serum calcium (<9 mg/dL) ([6]; at 4 weeks): 18%
number of subjects with high serum CTX (upper normal limit) (serum CTX; at 2 weeks): Six
number of subjects with high serum CTX (upper normal limit) (serum CTX; at 4 weeks): Six
